Entries after “also recorded” stand apart in the source; their conditions may differ.
How the values were obtained:
E. coli MetAP = E. coli MetAP (Escherichia coli, UniProt P0AE18); test: cell-based MetAP assay; conditions: Ca(II) treated cells; result in words
[1] = system: E. coli MetAP in the Fe(II)-form; conditions: result in words; ref [11] and [16]; cited from earlier work
E. coli AS19 strain = conditions: result in words; ref [11] and [16]; cited from earlier work
MetAP in the Co(II)-form = conditions: result in words; ref [10]; cited from earlier work

Chain of E. coli MetAP (P0AE18 whole entry): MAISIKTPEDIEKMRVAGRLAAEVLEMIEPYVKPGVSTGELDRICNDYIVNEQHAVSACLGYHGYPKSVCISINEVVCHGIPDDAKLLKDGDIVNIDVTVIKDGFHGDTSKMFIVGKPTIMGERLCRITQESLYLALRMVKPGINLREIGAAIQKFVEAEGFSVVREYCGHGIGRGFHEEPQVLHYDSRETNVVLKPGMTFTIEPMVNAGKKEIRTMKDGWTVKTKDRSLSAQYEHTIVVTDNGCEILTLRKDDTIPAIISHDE

Row | SMILES | inhibition of intracellular Met-AMC hydrolysis (cellular MetAP activity) (E. coli MetAP) | inhibition of purified MetAP in the Fe(II)-form [1] | inhibition of bacterial growth (E. coli AS19 strain) | potency and selectivity towards purified MetAP in the Co(II)-form (MetAP in the Co(II)-form)
1 | Cc1nc(-c2ccc(O)c(O)c2)cs1 [compound 1] | displayed inhibition; also recorded: inhibited in a time-dependent fashion |  |  | 
2 | COc1ccc(-c2csc(C)n2)cc1OC [compound 2] | decreased potency |  |  | 
3 | Cc1nc(-c2cccc(O)c2)cs1 [compound 3] | no inhibition |  |  | 
4 | Cc1nc(-c2ccc(O)cc2O)cs1 [compound 4] | no inhibition |  |  | 
5 | O=C(NC1CC1)c1ccc(-c2ccc(O)c(O)c2)s1 [compound 22] | exceptions |  |  | 
6 | O=C(NC1CC1)c1ccsc1-c1ccc(O)c(O)c1 [compound 23] | exceptions |  |  | 
7 | O=C(O)c1ccc(-c2ccccc2Cl)o1 [compound 28] |  | weak inhibition | did not halt bacterial growth | 
8 | O=C(O)c1ccc(-c2cc(Cl)ccc2Cl)o1 [compound 29] |  | weak inhibition | did not halt bacterial growth | 
9 | O=C(Nc1nccs1)C(=O)NC1CCCC1 [compound 30] | no inhibition | weak inhibition | did not halt bacterial growth | highly potent and selective
10 | O=C(NCc1ccccn1)C(=O)Nc1nccs1 [compound 31] | no inhibition | weak inhibition | did not halt bacterial growth | highly potent and selective
